Measured values as given in patent publication US20060100431A1, “Biologically active compounds” (Amura Therapeutics Limited, priority 2002, published 2006).
pKi: −log10 of the molar value.

What was measured:
[1] = molecular target: Wild-type cruzipain (Trypanosoma cruzi, UniProt P25779); assay: Trypanosoma cruzi cruzipain peptidase activity assay (Ki); assay type: biochemical; details: read-out: Ki, inhibitors of cruzain and cruzipains
Method in brief: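 Native cruzipain from T. cruzi Dm28 epimastigotes, 2.5 nM, in 100 mM sodium phosphate pH 6.75 with 1 mM EDTA and 10 mM L-cysteine, 25 °C, DMSO <1%. Rates taken from continuous fluorogenic substrate read; Ki by regression assuming reversible pure-competitive inhibition.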

[2] = molecular target: T1, CPB2.8ΔCTE (Leishmania mexicana, UniProt P36400); assay: Leishmania mexicana cysteine protease B (CPB) peptidase activity assay (Ki); assay type: biochemical; details: Ki, inhibitors of Leismania mexicana CPB protease
T1 construct: Wild-type recombinant CPB without the C-terminal extention (i.e. CPB2.8ΔCTE); Dr. Jeremy Mottram (Wellcome Centre for Molecular Parasitology, University of Glasgow)
Method in brief: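 Apparent Ki was derived by regression of activity against inhibitor concentration, assuming pure-competitive reversible binding. Reaction: 0.25 nM CPB lacking the C-terminal extension, pH 5.5 acetate buffer (1 mM EDTA, 200 mM NaCl, 10 mM DTT), 25 °C, followed by continuous substrate fluorescence.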

T1 sequence (P36400 126-343, stated change not applied): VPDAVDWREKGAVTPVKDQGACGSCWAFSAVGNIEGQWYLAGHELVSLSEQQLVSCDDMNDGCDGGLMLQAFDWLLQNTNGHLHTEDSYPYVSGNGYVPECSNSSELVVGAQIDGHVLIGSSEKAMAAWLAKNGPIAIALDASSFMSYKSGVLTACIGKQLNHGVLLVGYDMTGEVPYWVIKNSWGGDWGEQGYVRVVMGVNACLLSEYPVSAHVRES
Chain of Wild-type cruzipain (P25779 whole entry): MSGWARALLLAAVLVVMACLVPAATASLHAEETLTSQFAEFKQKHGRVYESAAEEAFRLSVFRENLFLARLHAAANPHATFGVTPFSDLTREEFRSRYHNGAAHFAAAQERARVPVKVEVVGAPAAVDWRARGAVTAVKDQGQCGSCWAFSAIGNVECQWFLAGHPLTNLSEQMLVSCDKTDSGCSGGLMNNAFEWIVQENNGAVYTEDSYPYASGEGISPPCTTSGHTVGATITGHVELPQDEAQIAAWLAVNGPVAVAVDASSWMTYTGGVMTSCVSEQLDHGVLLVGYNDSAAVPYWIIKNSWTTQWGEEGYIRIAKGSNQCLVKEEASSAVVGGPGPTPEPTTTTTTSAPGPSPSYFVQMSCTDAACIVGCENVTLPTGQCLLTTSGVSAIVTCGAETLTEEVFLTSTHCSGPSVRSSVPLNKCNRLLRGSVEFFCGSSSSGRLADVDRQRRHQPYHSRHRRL

SMILES | pKi [1] | pKi [2]
CC(C)C[C@H](NC(=O)c1ccc(N(C)C)cc1)C(=O)N1CC[C@@H]2[C@H]1C(=O)CN2C(=O)[C@@H](N)CC(C)C [Example 150, (3aR,6aS)-N-{(1S)-1-[4-((2S)-2-Amino-4-methyl-pentanoyl)-6-oxo-hexahydro-pyrrolo[3,2-b]pyrrole-1-carbonyl]-3-methyl-butyl}-4-dimethylamino-benzamide] | > 5.30 | > 5.30
CC(C)C[C@H](NC(=O)c1ccc(N(C)C)cc1)C(=O)N1CC[C@@H]2[C@H]1C(=O)CN2C(=O)[C@H](Cc1ccccc1)NC(=O)OCc1ccccc1 [Example 160, (3aS,6aR)-((1S)-1-Benzyl-2-{-[(2S)-2-(4-dimethylamino-benzoylamino)-4-methyl-pentanoyl]-3-oxo-hexahydro-pyrrolo[3,2-b]pyrrole-1-yl}-2-oxo-ethyl)-carbamic acid benzyl ester] | > 5.30 | > 5.30
CC(=O)Nc1ccsc1C(=O)N1CC(=O)[C@@H]2[C@H]1CCN2C(=O)[C@H](CC(C)C)NC(=O)c1ccc(N(C)C)cc1 [Example 165, (3aR,6aS)-N-{(1S)-[4-(3-Acetylamino-thiophene-2-carbonyl)-6-oxo-hexahydro-pyrrolo[3,2-b]pyrrole-1-carbonyl]-3-methyl-butyl}-4-dimethylamino-benzamide] | > 5.30 | > 5.30
CC(C)C[C@H](NC(=O)c1ccc(N(C)C)cc1)C(=O)N1CC[C@@H]2[C@H]1C(=O)CN2C(=O)Nc1ccccc1 [Example 167, (3aS,6aR)-4-[(2S)-2-(4-Dimethylamino-benzoylamino)-4-methyl-pentanoyl]-3-oxo-hexahydro-pyrrolo[3,2-b]pyrrole-1-carboxylic acid phenylamide] | > 5.30 | > 5.30
CC(C)C[C@H](NC(=O)c1ccc(C(C)(C)C)cc1)C(=O)N1CC[C@@H]2[C@H]1C(=O)CN2C(=O)Nc1ccccc1 [Example 190, (3aS,6aR)-4-(2S-2-(4-tert-Butyl-benzoylamino)-4-methyl-pentanoyl]-3-oxo-hexahydro-pyrrolo[3,2-b]pyrrole-1-carboxylic acid phenylamide] | > 5.30 | > 5.30
CC(C)CCC(=O)N1CC(=O)[C@@H]2[C@H]1CCN2C(=O)[C@H](CC(C)C)NC(=O)c1ccc(C(C)(C)C)cc1 [Example 191, (3aR,6aS)-4-tert-Butyl-N-{(1S)-3-methyl-1-[4-(4-methyl-pentanoyl)-6-oxo-hexahydro-pyrrolo[3,2-b]pyrrole-1-carbonyl]-butyl}-benzamide] | > 5.30 | > 5.30
CC(C)C[C@H](NC(=O)c1ccc(C(C)(C)C)cc1)C(=O)N1CC[C@@H]2[C@H]1C(=O)CN2C(=O)[C@@H](N)CC(C)C [Example 192, (3aR,6aS)-N-{(1S)-1-[4-((2S)-2-Amino-4-methyl-pentanoyl)-6-oxo-hexahydro-pyrrolo[3,2-b]pyrrole-1-carbonyl]-3-methyl-butyl}-4-tert-butyl-benzamide] | > 5.30 | > 5.30
CC(C)C[C@H](NC(=O)c1ccc(N(C)C)cc1)C(=O)N1CC[C@@H]2[C@H]1C(=O)CN2C(=O)[C@@H](N)[C@@H](C)O [Example 207, (3aR,6aS)-N-{(1S)-1-[4-((2S,3R)-2-Amino-3-hydroxy-butyryl)-6-oxo-hexahydro-pyrrolo[3,2-b]pyrrole-1-carbonyl]-3-methyl-butyl}-4-dimethylamino-benzamide] | > 5.30 | > 5.30
CC(C)C[C@H](NC(=O)c1ccc(N(C)C)cc1)C(=O)N1CC[C@@H]2[C@H]1C(=O)CN2C(=O)[C@@H](N)[C@H](C)O [Example 208, (3aR,6aS)-N-{(1S)-1-[4-((2S,3S)-2-Amino-3-hydroxy-butyryl)-6-oxo-hexahydro-pyrrolo[3,2-b]pyrrole-1-carbonyl]-3-methyl-butyl}-4-dimethylamino-benzamide] | > 5.30 | > 5.30
CC[C@H](C)[C@H](N)C(=O)N1CC(=O)[C@@H]2[C@H]1CCN2C(=O)[C@H](CC(C)C)NC(=O)c1ccc(N(C)C)cc1 [Example 209, (3aR,6aS)-N-{(1S)-1-[4-((2S,3S)-2-Amino-3-methyl-pentanoyl)-6-oxo-hexahydro-pyrrolo[3,2-b]pyrrole-1-carbonyl]-3-methyl-butyl}-4-dimethylamino-benzamide] | > 5.30 | > 5.30
CC(C)C[C@H](NC(=O)c1ccc(N(C)C)cc1)C(=O)N1CC[C@@H]2[C@H]1C(=O)CN2C(=O)[C@@H](N)CC(C)(C)C [Example 212, (3aR,6aS)-N-{(1S)-1-[4-((2S)-2-Amino-4,4-dimethyl-pentanoyl)-6-oxo-hexahydro-pyrrolo[3,2-b]pyrrole-1-carbonyl]-3-methyl-butyl}-4-dimethylamino-benzamide] | > 5.30 | > 5.30
CC(=O)N[C@@H](CCC(C)C)C(=O)N1CC(=O)[C@@H]2[C@H]1CCN2C(=O)[C@H](CC(C)C)NC(=O)c1ccc(N(C)C)cc1 [Example 214, (3aR,6aS)-N-{(1S)-1-[4-((2S)-2-Acetylamino-5-methyl-hexanoyl)-6-oxo-hexahydro-pyrrolo[3,2-b]pyrrole-1-carbonyl]-3-methyl-butyl}-4-dimethylamino-benzamide] | > 5.30 | > 5.30
CN[C@@H](CC(C)C)C(=O)N1CC(=O)[C@@H]2[C@H]1CCN2C(=O)[C@H](CC(C)C)NC(=O)c1ccc(N(C)C)cc1 [Example 220, (3aR,6aS)-4-Dimethylamino-N-{(1S)-3-methyl-1-[4-((2S)-4-methyl-2-methylamino-pentanoyl)-6-oxo-hexahydro-pyrrolo[3,2-b]pyrrole-1-carbonyl]-butyl}-benzamide] | > 5.30 | > 5.30
CC(C)C[C@H](NC(=O)c1ccc(N(C)C)cc1)C(=O)N1CC[C@@H]2[C@H]1C(=O)CN2C(=O)[C@@H](O)CC(C)C [Example 233, (3aR,6aS)-4-Dimethylamino-N-{(1S)-1-[4-((2S)2-hydroxy-4 methyl-pentanoyl)-6-oxo-hexahydro-pyrrolo[3,2-b]pyrrole-1-carbonyl]-3-methyl-butyl}-benzamide] | > 5.30 | > 5.30
CC(C)C[C@H](NC(=O)c1ccc(N(C)C)cc1)C(=O)N1CC[C@@H]2[C@H]1C(=O)CN2C(=O)N1CCCC1 [Example 235, (3aR,6aS)-4-Dimethylamino-N-{(1S)-3-methyl-1-[6-oxo-4-(pyrrolidine-1-carbonyl)-hexahydro-pyrrolo[3,2-b]pyrrole-1-carbonyl]-butyl}-benzamide] | > 5.30 | > 5.30
CC(C)C[C@H](NC(=O)c1ccc(N(C)C)cc1)C(=O)N1OC[C@@H]2[C@H]1C(=O)CN2C(=O)c1ccccc1 [Example 248, (3aS,6aS)-N-[(1S)-1-(4-Benzoyl-6-oxo-hexahydro-2-oxa-1,4-diaza-pentalene-1-carbonyl)-3-methyl-butyl]-4-dimethylamino-benzamide] | > 5.30 | > 5.30
NCc1ccc(C(=O)N[C@@H](Cc2ccc(O)cc2)C(=O)N2CC[C@@H]3[C@H]2C(=O)CN3C(=O)c2ccccc2)cc1 [Example 318] | > 5.30 | > 5.30
NCc1cccc(C(=O)N[C@@H](Cc2ccc(O)cc2)C(=O)N2CC[C@@H]3[C@H]2C(=O)CN3C(=O)c2ccccc2)c1 [Example 319, (3aR,6aS)-3-Aminomethyl-N-[(1S)-2-(4-benzoyl-6-oxo-hexahydro-pyrrolo[3,2-b]pyrrole-1-yl)-1-(4-hydroxy-benzyl)-2-oxo-ethyl]-benzamide] | > 5.30 | > 5.30
